{"source": "patent US7671051B2", "about": "“Inhibitors of 11-β-hydroxy steroid dehydrogenase type 1” (Biovitrum AB, priority 2001, dated 2010)", "origin": "cited, not measured here", "test_system": "bone nodule formation", "data": [{"smiles": "CC1(C)[C@@H](OC(=O)CCC(=O)O)CC[C@]2(C)[C@H]3C(=O)C=C4[C@@H]5C[C@@](C)(C(=O)O)CC[C@]5(C)CC[C@@]4(C)[C@]3(C)CC[C@@H]12", "note": "[carbenoxolone]", "values": [{"measurement": "negative effect (of glucocorticoid) on bone nodule formation", "result": "blocked"}]}]}
